Drawing on ChEMBL document CHEMBL3797107, “Discovery of 5-(methylthio)pyrimidine derivatives as L858R/T790M mutant selective epidermal growth factor receptor (EGFR) inhibitors” (Bioorg Med Chem, 2016), this text covers IC50, inhibition and Activity for 13 compounds.

Calls of active or inactive are those of the source. No cut-off for these calls is given here.

For one series, the system named is A-431. The series is described as follows: Antiproliferative activity against human A431 cells overexpressing wild-type EGFR after 72 hrs by SRB assay. The series is classed as functional, cell-based. Particulars: A-431, 72 h.
Series [1] concerns NCI-H1975. Kind of series: Antiproliferative activity against human NCI-H1975 cells expressing EGFR T790M/L858R mutant after 72 hrs by SRB assay. The series is classed as functional, cell-based. The note with it: NCI-H1975, 72 h. (The SRB assay estimates cell density from bound dye.)
Series [2] has as its target Epidermal growth factor receptor (Homo sapiens, UniProt P00533, L858R/T790M). Kind of series: Inhibition of EGFR T790M/L858R mutant (unknown origin) expressed in baculovirus expression system after 1 hr by ELISA.
Series [3] concerns the target T1, Epidermal growth factor receptor (Homo sapiens, UniProt P00533). The series is described as follows: Inhibition of wild-type EGFR (unknown origin) expressed in baculovirus expression system after 1 hr by ELISA. For orientation: An ELISA detects its analyte on a solid surface through an enzyme-linked reagent.
In series [4] the test system is Epidermal growth factor receptor (Homo sapiens), P00533 [L858R,T790M]. Kind of series: Inhibition of EGFR T790M/L858R mutant phosphorylation in EGF-stimulated human NCI-H1975 cells preincubated for 2 hrs followed by EGF addition for 10 mins by western blot analysis. The series is classed as cell-based. For orientation: Immunoblotting shows a protein as a band on a membrane.
Epidermal growth factor receptor (Homo sapiens), P00533 [L858R,T790M], sequence (P00533 whole entry T790M/L858R, looked up): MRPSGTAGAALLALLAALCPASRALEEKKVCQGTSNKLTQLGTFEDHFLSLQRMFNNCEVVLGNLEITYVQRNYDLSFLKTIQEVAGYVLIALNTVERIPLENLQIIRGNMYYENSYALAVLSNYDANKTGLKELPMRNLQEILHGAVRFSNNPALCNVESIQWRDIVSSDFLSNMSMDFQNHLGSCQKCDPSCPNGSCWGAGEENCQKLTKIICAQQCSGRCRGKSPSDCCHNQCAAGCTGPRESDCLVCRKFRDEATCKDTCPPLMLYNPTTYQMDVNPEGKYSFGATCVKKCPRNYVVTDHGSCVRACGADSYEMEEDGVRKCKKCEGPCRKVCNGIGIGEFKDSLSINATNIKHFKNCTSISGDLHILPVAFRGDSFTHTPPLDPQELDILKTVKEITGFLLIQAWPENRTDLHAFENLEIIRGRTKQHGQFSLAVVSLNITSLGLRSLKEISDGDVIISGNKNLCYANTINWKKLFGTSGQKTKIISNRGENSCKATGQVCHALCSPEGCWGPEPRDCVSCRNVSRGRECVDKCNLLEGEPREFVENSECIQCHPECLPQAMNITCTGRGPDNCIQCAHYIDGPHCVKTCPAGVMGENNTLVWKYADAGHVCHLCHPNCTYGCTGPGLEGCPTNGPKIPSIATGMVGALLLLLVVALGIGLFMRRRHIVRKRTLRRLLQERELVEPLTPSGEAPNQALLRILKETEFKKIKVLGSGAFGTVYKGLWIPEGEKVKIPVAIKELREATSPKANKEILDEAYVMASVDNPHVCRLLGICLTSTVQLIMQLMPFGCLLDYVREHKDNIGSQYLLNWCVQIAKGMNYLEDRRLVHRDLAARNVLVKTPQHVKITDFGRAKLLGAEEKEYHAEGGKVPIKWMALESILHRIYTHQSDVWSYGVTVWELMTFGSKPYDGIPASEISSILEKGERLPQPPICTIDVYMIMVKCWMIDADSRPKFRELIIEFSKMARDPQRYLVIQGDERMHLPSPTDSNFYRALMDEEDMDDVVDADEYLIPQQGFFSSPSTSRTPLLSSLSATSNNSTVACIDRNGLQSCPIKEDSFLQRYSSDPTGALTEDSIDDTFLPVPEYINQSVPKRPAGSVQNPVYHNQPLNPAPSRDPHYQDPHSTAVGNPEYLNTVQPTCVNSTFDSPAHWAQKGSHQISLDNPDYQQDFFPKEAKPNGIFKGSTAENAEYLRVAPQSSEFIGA

In series [5] the test system is NCI-H1975. The series is described as follows: Effect on total tubulin level in human NCI-H1975 cells at 0.001 to 1 uM preincubated for 2 hrs followed by EGF addition for 10 mins by western blot analysis. The series is classed as ADME, cell-based. Particulars: nci-h1975, 10 min.
The subject of series [6] is NCI-H1975. Kind of series: Effect on total Akt level in human NCI-H1975 cells at 0.001 to 1 uM preincubated for 2 hrs followed by EGF addition for 10 mins by western blot analysis. The format is ADME, cell-based. The note with it: nci-h1975, 10 min.
Series [7] has as its system NCI-H1975. The series is described as follows: Effect on total Erk level in human NCI-H1975 cells at 0.001 to 1 uM preincubated for 2 hrs followed by EGF addition for 10 mins by western blot analysis. The series is classed as ADME, cell-based. The note with it: nci-h1975, 10 min.
Series [8] concerns Epidermal growth factor receptor (Homo sapiens), P00533 [L858R,T790M]. The series is described as follows: Inhibition of EGFR T790M/L858R mutant in EGF-stimulated human NCI-H1975 cells assessed as decrease in phosphorylated Erk level at 0.001 to 1 uM preincubated for 2 hrs followed by EGF addition for 10 mins by western blot analysis. The format is cell-based.
For series [9], the system named is NCI-H1975. The series is described as follows: Effect on total EGFR level in human NCI-H1975 cells at 0.001 to 1 uM preincubated for 2 hrs followed by EGF addition for 10 mins by western blot analysis. The note with it: nci-h1975, 10 min. The series is classed as ADME, cell-based.
In series [10] the test system is Epidermal growth factor receptor (Homo sapiens), P00533 [L858R,T790M]. The series is described as follows: Inhibition of EGFR T790M/L858R mutant in EGF-stimulated human NCI-H1975 cells assessed as decrease in phosphorylated Akt level at 0.001 to 1 uM preincubated for 2 hrs followed by EGF addition for 10 mins by western blot analysis. The series is classed as cell-based.

Series [11] deals with T1, Epidermal growth factor receptor. Kind of series: Inhibition of wild-type EGFR in EGF-stimulated human A431 cells assessed as decrease in phosphorylated Erk level preincubated for 2 hrs followed by EGF addition for 10 mins by western blot analysis. The format is cell-based. Particulars: A-431.
Series [12] has the same target. Kind of series: Inhibition of wild-type EGFR phosphorylation in EGF-stimulated human A431 cells preincubated for 2 hrs followed by EGF addition for 10 mins by western blot analysis. The note with it: A-431. The series is classed as cell-based.
The subject of series [13] is Epidermal growth factor receptor (Homo sapiens), P00533 [L858R,T790M]. The series is described as follows: Inhibition of EGFR T790M/L858R mutant in EGF-stimulated human NCI-H1975 cells assessed as decrease in phosphorylated Erk level preincubated for 2 hrs followed by EGF addition for 10 mins by western blot analysis. The format is cell-based.
For series [14], the target named is T1, Epidermal growth factor receptor. The series is described as follows: Inhibition of wild-type EGFR in EGF-stimulated human A431 cells assessed as decrease in phosphorylated Akt level preincubated for 2 hrs followed by EGF addition for 10 mins by western blot analysis. The note with it: A-431. The series is classed as cell-based.
Series [15] deals with Epidermal growth factor receptor (Homo sapiens), P00533 [L858R,T790M]. Kind of series: Inhibition of EGFR T790M/L858R mutant in EGF-stimulated human NCI-H1975 cells assessed as decrease in phosphorylated Akt level preincubated for 2 hrs followed by EGF addition for 10 mins by western blot analysis. The series is classed as cell-based.

By IC50 is commonly meant the concentration at which inhibition is half-maximal. High values mean weaker potency, low ones greater potency. On to `C=CC(=O)Nc1cc(Nc2nccc(-c3cn(C)c4ccccc34)n2)c(OC)cc1N(C)CCN(C)C` [OSIMERTINIB], for which the IC50 in the series with A-431 worked out at […]; in the series on NCI-H1975 [1] it was […].

T1 sequence (P00533 whole entry): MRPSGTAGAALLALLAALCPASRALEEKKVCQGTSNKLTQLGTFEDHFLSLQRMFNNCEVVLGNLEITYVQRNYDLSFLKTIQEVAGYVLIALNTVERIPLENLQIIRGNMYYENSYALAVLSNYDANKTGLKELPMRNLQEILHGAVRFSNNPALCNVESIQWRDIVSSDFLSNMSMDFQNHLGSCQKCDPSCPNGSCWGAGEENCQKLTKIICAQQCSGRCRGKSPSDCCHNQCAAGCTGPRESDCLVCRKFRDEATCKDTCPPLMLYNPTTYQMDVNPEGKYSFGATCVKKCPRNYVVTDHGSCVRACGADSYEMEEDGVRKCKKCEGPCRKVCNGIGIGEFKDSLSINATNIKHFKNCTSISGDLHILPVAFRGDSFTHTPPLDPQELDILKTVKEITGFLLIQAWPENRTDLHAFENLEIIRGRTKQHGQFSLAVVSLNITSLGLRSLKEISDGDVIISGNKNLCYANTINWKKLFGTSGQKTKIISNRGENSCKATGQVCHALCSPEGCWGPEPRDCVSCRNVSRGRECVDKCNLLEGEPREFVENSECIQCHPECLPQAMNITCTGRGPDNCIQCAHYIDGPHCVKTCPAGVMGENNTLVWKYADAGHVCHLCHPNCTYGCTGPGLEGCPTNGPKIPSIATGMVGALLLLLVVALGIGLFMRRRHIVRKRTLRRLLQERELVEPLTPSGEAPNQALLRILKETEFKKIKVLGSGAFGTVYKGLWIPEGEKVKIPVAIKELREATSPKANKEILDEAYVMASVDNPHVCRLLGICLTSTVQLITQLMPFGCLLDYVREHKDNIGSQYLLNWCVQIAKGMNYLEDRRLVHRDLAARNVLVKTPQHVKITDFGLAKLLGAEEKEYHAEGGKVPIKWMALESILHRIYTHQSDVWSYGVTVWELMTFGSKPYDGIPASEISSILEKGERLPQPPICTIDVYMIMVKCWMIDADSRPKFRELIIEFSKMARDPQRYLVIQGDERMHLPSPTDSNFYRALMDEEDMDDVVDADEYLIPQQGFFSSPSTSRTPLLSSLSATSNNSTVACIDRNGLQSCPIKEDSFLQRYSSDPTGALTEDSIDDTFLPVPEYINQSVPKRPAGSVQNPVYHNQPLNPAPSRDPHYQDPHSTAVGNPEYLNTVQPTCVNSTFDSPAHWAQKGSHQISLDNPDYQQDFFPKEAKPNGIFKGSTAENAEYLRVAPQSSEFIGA
Epidermal growth factor receptor (Homo sapiens, UniProt P00533, L858R/T790M), sequence (P00533 25-1210 T790M/L858R limits assumed): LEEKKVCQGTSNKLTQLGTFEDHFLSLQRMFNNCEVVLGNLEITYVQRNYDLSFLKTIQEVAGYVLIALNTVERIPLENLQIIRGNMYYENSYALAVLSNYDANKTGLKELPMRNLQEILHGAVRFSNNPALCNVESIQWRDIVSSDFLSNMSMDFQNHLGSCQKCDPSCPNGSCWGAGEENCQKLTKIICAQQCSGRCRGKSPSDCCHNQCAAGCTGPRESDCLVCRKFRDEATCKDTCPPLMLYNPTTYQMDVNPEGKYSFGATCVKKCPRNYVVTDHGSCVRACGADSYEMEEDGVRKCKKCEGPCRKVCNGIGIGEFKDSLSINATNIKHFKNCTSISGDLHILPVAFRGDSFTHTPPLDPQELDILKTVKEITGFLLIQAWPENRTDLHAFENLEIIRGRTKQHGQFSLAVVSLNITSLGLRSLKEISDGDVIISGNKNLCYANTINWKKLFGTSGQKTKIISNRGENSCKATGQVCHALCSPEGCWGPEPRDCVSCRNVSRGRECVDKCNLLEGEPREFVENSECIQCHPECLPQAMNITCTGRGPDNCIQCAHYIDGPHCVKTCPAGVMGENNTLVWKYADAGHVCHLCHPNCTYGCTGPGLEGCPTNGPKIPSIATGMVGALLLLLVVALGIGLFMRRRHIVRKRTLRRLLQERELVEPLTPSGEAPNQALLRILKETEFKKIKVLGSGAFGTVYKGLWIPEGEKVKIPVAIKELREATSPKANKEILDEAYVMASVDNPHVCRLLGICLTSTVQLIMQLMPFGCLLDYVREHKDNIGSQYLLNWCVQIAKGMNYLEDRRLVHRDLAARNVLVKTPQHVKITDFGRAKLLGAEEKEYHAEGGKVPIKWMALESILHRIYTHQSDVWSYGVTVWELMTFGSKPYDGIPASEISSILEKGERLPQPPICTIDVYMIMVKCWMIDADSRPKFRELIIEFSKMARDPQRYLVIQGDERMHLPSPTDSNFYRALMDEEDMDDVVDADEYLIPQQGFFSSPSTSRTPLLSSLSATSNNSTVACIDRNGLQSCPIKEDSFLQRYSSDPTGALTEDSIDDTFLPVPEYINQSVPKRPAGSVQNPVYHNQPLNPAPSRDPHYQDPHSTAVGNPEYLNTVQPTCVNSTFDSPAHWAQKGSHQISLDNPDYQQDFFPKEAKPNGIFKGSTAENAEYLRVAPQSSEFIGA

On to `C=CC(=O)Nc1cccc(Oc2nc(Nc3ccc(N4CCN(C(=O)C(C)C)CC4)cc3OC)ncc2SC)c1`, for which the IC50 in series [2] is 3.6 nM; in the series with A-431, 2.01 µM; in series [3], 174 nM; in the series on NCI-H1975 [1], 200 nM.

Turning to `C=CC(=O)Nc1cccc(Oc2nc(Nc3ccc(N4CCN(C)CC4)cc3OC)ncc2SC)c1`, the inhibition result in [4] was “Dose-dependent effect”. Moreover, the Activity entry in the series with NCI-H1975 [5], in the series with NCI-H1975 [6], with NCI-H1975 [7] and in the series with NCI-H1975 [9] was “Non-toxic” throughout. Moreover, the IC50 in series [2] was found to be 0.4 nM; in the series with A-431 it was 3.88 µM; in series [3] it was 272 nM; in the series with NCI-H1975 [1] it was 167 nM. For the same compound, the inhibition result in [8] and in series [10] was “Active” in each case.

As for `C=CC(=O)Nc1cccc(Oc2nc(Nc3ccc(N4CCN(C(=O)CC)CC4)cc3OC)ncc2SC)c1`, the inhibition entry in series [4], in series [11], in [12], in [13], in [14] and in [15] was “Dose-dependent effect” each time. Moreover, the IC50 in series [2] was found to be 5.8 nM; with A-431, 4.42 µM; in series [3], 154 nM; with NCI-H1975 [1] it was 148 nM.

Consider `C=CC(=O)Nc1cccc(Oc2nc(Nc3ccc(N4CCN(C(C)=O)CC4)cc3OC)ncc2C(F)(F)F)c1`, for which the inhibition entry in [4] was “Dose-dependent effect”. The inhibition result in series [8] and in series [10] was “Active” each time. Moreover, the IC50 in the series with A-431 was determined as 1.89 µM; in the series on NCI-H1975 [1], 88 nM.

As for `C=CC(=O)Nc1cccc(Oc2nc(Nc3ccc(N4CCN(C(C)=O)CC4)cc3OC)ncc2SC)c1`, the IC50 is 0.7 nM in series [2], 4.58 µM with A-431, 87.5 nM in series [3] and 194 nM in the series with NCI-H1975 [1].

In the case of `C=CC(=O)Nc1cccc(Oc2nc(Nc3ccc(N4CCN(C(=O)C(F)(F)F)CC4)cc3OC)ncc2SC)c1`, the IC50 was determined as 4.4 nM in series [2], 1.19 µM with A-431, 248 nM in series [3] and 404 nM in the series with NCI-H1975 [1].

Consider `C=CC(=O)Nc1cccc(Oc2nc(Nc3ccc(N4CCN(C(=O)CC)CC4)cc3OC(F)F)ncc2SC)c1`, for which the inhibition result in series [4], in series [11], in series [12], in [13], in series [14] and in series [15] was “Dose-dependent effect” throughout. For the same compound, the IC50 in series [2] is 3.7 nM; in the series with A-431, 4.92 µM; in series [3], 46.4 nM; in the series with NCI-H1975 [1], 88 nM.

With `C=CC(=O)Nc1cccc(Oc2nc(Nc3ccc(N4CCN(C(=O)C(C)(C)C)CC4)cc3OC)ncc2SC)c1`, the IC50 in series [2] stood at 9.6 nM; in the series with A-431 it was 9.22 µM; in series [3], 410 nM; with NCI-H1975 [1], 577 nM.

Regarding `C=CC(=O)Nc1cccc(Oc2nc(Nc3ccc(N4CCN(S(C)(=O)=O)CC4)cc3OC)ncc2SC)c1`, the IC50 in [2] was 7.3 nM; with A-431 it was over 10 µM; in series [3], 730 nM; with NCI-H1975 [1] it was 1690 nM.

For the compound `C=CC(=O)Nc1cccc(Oc2nc(Nc3ccc(N4CCN(C(C)=O)CC4)cc3OC(F)F)ncc2SC)c1`, the inhibition result in [4], in series [11], in series [12], in series [13], in series [14] and in series [15] was “Dose-dependent effect” throughout. The IC50 in series [2] came out at 2.8 nM; in the series with A-431 it was 4.65 µM; in series [3] it was 38.8 nM; with NCI-H1975 [1] it was 20 nM.

As for `C=CC(=O)Nc1cccc(Oc2nc(Nc3ccc(N4CCCN(C(C)=O)CC4)cc3OC)ncc2SC)c1`, the IC50 in [2] amounted to 1.8 nM; with A-431 it was 4.29 µM; in series [3], 389 nM; in the series on NCI-H1975 [1] it was 573 nM.

For `C=CC(=O)Nc1cccc(Oc2nc(Nc3ccc(N4CCN(C)CC4)cc3OC)ncc2Cl)c1`, in the series with NCI-H1975 [1], the IC50 was 95 nM.
